# Measurements as given in patent US20100267561A1, “HERBICIDAL PYRIDAZINONE DERIVATIVES” (priority 2007, published 2010).
# How the values were obtained:
# Format in all cases: in vivo
# [1] = test system: canarygrass (Phalaris minor); test: Test B postemergence plant response; conditions: for Canarygrass plant response rating: 8 g ai/ha, postemergence, 0-100 scale; for Plant response rating, Canarygrass: Postemergence
# How it was run: (§1)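 Scoring: 0 means no effect and 100 complete control, judged by eye against controls after 13–15 days under greenhouse conditions following postemergence application at 2–18 cm plant height.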
# [2] = test system: windgrass (Apera spica-venti); test: Test B postemergence plant response; conditions: for Windgrass plant response rating: postemergence, 0-100 scale; for Plant response rating, Windgrass: Postemergence
# How it was run: as §1
# [3] = test system: winter barley (Hordeum vulgare); test: Test B postemergence plant response; conditions: for Barley plant response rating: 8 g ai/ha, postemergence, 0-100 scale; for Plant response rating, Barley: Postemergence, scale 0 to 100, 0 no effect, 100 complete control
# How it was run: as §1
# [4] = test system: chickweed (Stellaria media); test: Test B postemergence plant response; conditions: for Chickweed plant response rating: 8 g ai/ha, postemergence, 0-100 scale; for Plant response rating, Chickweed: Postemergence
# How it was run: as §1
# [5] = test system: velvetleaf (Abutilon theophrasti); test: Test A pre-/postemergence plant response
# How it was run: (§2)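 Seeds were planted in blended loam soil and sand, then treated preemergence by directed soil spray. At that time, emerged plants (one- to two-leaf, 2–10 cm) received postemergence applications of the same surfactant-containing formulation. Injury was assessed visually on a 0–100 scale after approximately 10 days.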
# corn (Zea mays) = test: Test A pre-/postemergence plant response
# How it was run: as §2
# [6] = test system: giant foxtail (Setaria faberi); test: Test A pre-/postemergence plant response
# How it was run: as §2
# [7] = test system: morningglory (Ipomoea coccinea); test: Test A pre-/postemergence plant response
# How it was run: as §2
# [8] = test system: barnyardgrass (Echinochloa crus-galli); test: Test A pre-/postemergence plant response
# How it was run: as §2
# [9] = test system: large crabgrass (Digitaria sanguinalis); test: Test A pre-/postemergence plant response
# How it was run: as §2
# [10] = test system: pigweed (Amaranthus retroflexus); test: Test A pre-/postemergence plant response
# How it was run: as §2
# [11] = test system: ducksalad (Heteranthera limosa); test: Test B flooded paddy test plant response
# How it was run: (§3)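 Compounds were added directly to paddy water over 2-leaf-stage plants in pots flooded 3 cm above soil, water depth maintained. Visual injury scored against controls after 13 to 15 days in greenhouse, 0 (none) to 100 (complete control); dash indicates no result.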
# [12] = test system: barnyardgrass (Echinochloa crus-galli); test: Test B flooded paddy test plant response
# How it was run: as §3
# rice (Oryza sativa) = test: Test B flooded paddy test plant response
# How it was run: as §3
# [13] = test system: umbrella sedge (Cyperus difformis); test: Test B flooded paddy test plant response
# How it was run: as §3
# [14] = 62 g ai/ha, scale 0 to 100, 0 no effect, 100 complete control
# [15] = Postemergence, 31 g ai/ha, 0 to 100 scale (0 no effect, 100 complete control)
# [16] = Postemergence, 125 g ai/ha, 0 to 100 scale, 0 no effect, 100 complete control
# [17] = Preemergence, 31 g ai/ha, 0 to 100 scale, 0 is no effect, 100 is complete control
# [18] = Preemergence, 125 g ai/ha, 0 to 100 scale (0 no effect, 100 complete control)
# [19] = Flood (flooded paddy test), 62 g ai/ha, scale 0 to 100, 0 no effect, 100 complete control
# [20] = Flood (flooded paddy test), 125 g ai/ha, scale 0 to 100, 0 no effect, 100 complete control
# [21] = Flood (flooded paddy test), 250 g ai/ha, scale 0 to 100, 0 no effect, 100 complete control
# [22] = Flood, 31 g ai/ha, scale 0 to 100
# [23] = 31 g ai/ha, scale 0 to 100, 0 no effect, 100 complete control
structure (smiles),measurement,setting,value
CCc1cc(-c2ccc(Br)cc2)nn1-c1c(O)cnn(C)c1=O [Compound 61],Canarygrass plant response rating,[1],80
same,"Plant response rating, Canarygrass","[1]; 16 g ai/ha, scale 0 to 100",85
same,"Plant response rating, Canarygrass","[1]; 31 g ai/ha, scale 0 to 100",85
same,"Plant response rating, Canarygrass",[1]; [14],85
same,Windgrass plant response rating,[2]; 8 g ai/ha,90
same,Windgrass plant response rating,[2]; 16 g ai/ha,100
same,"Plant response rating, Windgrass","[2]; 31 g ai/ha, scale 0 to 100",100
same,"Plant response rating, Windgrass",[2]; [14],100
same,Barley plant response rating,[3],70
same,"Plant response rating, Barley",[3]; 16 g ai/ha,90
same,"Plant response rating, Barley",[3]; 31 g ai/ha,90
same,"Plant response rating, Barley",[3]; 62 g ai/ha,90
same,Chickweed plant response rating,[4],0
same,"Plant response rating, Chickweed","[4]; 16 g ai/ha, scale 0 to 100",0
same,"Plant response rating, Chickweed","[4]; 31 g ai/ha, scale 0 to 100",0
same,"Plant response rating, Chickweed",[4]; [14],0
same,"Plant response rating, Velvetleaf",[5]; [15],0
same,"Plant response rating, Velvetleaf",[5]; [16],0
same,"Plant response rating, Velvetleaf",[5]; [17],0
same,"Plant response rating, Velvetleaf",[5]; [18],0
same,"Plant response rating, Corn",corn (Zea mays); [15],100
same,"Plant response rating, Corn",corn (Zea mays); [16],100
same,"Plant response rating, Corn",corn (Zea mays); [17],70
same,"Plant response rating, Corn",corn (Zea mays); [18],90
same,"Plant response rating, Foxtail, Giant",[6]; [15],100
same,"Plant response rating, Foxtail, Giant",[6]; [16],100
same,"Plant response rating, Foxtail, Giant",[6]; [17],100
same,"Plant response rating, Foxtail, Giant",[6]; [18],100
same,"Plant response rating, Morningglory",[7]; [15],0
same,"Plant response rating, Morningglory",[7]; [16],0
same,"Plant response rating, Morningglory",[7]; [17],0
same,"Plant response rating, Morningglory",[7]; [18],0
same,"Plant response rating, Barnyardgrass",[8]; [15],100
same,"Plant response rating, Barnyardgrass",[8]; [16],100
same,"Plant response rating, Barnyardgrass",[8]; [17],90
same,"Plant response rating, Barnyardgrass",[8]; [18],100
same,"Plant response rating, Crabgrass, Large",[9]; [15],100
same,"Plant response rating, Crabgrass, Large",[9]; [16],100
same,"Plant response rating, Crabgrass, Large",[9]; [17],80
same,"Plant response rating, Crabgrass, Large",[9]; [18],100
same,"Plant response rating, Pigweed",[10]; [15],0
same,"Plant response rating, Pigweed",[10]; [16],0
same,"Plant response rating, Pigweed",[10]; [17],0
same,"Plant response rating, Pigweed",[10]; [18],0
same,"Plant response rating, Ducksalad",[11]; [19],0
same,"Plant response rating, Ducksalad",[11]; [20],0
same,"Plant response rating, Ducksalad",[11]; [21],70
same,"Plant response rating, Ducksalad",[11]; [22],0
same,"Plant response rating, Barnyardgrass",[12]; [19],0
same,"Plant response rating, Barnyardgrass",[12]; [20],50
same,"Plant response rating, Barnyardgrass",[12]; [21],100
same,"Plant response rating, Barnyardgrass",[12]; [22],0
same,"Plant response rating, Rice",rice (Oryza sativa); [19],0
same,"Plant response rating, Rice",rice (Oryza sativa); [20],15
same,"Plant response rating, Rice",rice (Oryza sativa); [21],60
same,"Plant response rating, Rice",rice (Oryza sativa); [22],0
same,"Plant response rating, Sedge, Umbrella",[13]; [19],0
same,"Plant response rating, Sedge, Umbrella",[13]; [20],0
same,"Plant response rating, Sedge, Umbrella",[13]; [21],30
same,"Plant response rating, Sedge, Umbrella",[13]; [22],0
CCc1cc(-c2ccc(Cl)cc2)nn1-c1c(OC(=O)C(C)(C)C)cnn(C)c1=O [Compound 40],Canarygrass plant response rating,[1],20
same,"Plant response rating, Canarygrass","[1]; 16 g ai/ha, scale 0 to 100",30
same,"Plant response rating, Canarygrass",[1]; [23],80
same,"Plant response rating, Canarygrass",[1]; [14],80
same,Windgrass plant response rating,[2]; 8 g ai/ha,70
same,"Plant response rating, Windgrass","[2]; 16 g ai/ha, scale 0 to 100",80
same,"Plant response rating, Windgrass",[2]; [14],100
same,Barley plant response rating,[3],35
same,"Plant response rating, Barley",[3]; 16 g ai/ha,40
same,"Plant response rating, Barley",[3]; 31 g ai/ha,70
same,"Plant response rating, Barley",[3]; 62 g ai/ha,70
same,Chickweed plant response rating,[4],0
same,"Plant response rating, Chickweed","[4]; 16 g ai/ha, scale 0 to 100",0
same,"Plant response rating, Chickweed",[4]; [23],0
same,"Plant response rating, Chickweed",[4]; [14],0
same,"Plant response rating, Velvetleaf",[5]; [15],0
same,"Plant response rating, Velvetleaf",[5]; [16],0
same,"Plant response rating, Velvetleaf",[5]; [17],0
same,"Plant response rating, Velvetleaf",[5]; [18],0
same,"Plant response rating, Corn",corn (Zea mays); [15],90
same,"Plant response rating, Corn",corn (Zea mays); [16],100
same,"Plant response rating, Corn",corn (Zea mays); [17],30
same,"Plant response rating, Corn",corn (Zea mays); [18],90
same,"Plant response rating, Foxtail, Giant",[6]; [15],100
same,"Plant response rating, Foxtail, Giant",[6]; [16],100
same,"Plant response rating, Foxtail, Giant",[6]; [17],100
same,"Plant response rating, Foxtail, Giant",[6]; [18],100
same,"Plant response rating, Morningglory",[7]; [15],0
same,"Plant response rating, Morningglory",[7]; [16],0
same,"Plant response rating, Morningglory",[7]; [17],0
same,"Plant response rating, Morningglory",[7]; [18],0
same,"Plant response rating, Barnyardgrass",[8]; [15],100
same,"Plant response rating, Barnyardgrass",[8]; [16],100
same,"Plant response rating, Barnyardgrass",[8]; [17],100
same,"Plant response rating, Barnyardgrass",[8]; [18],100
same,"Plant response rating, Crabgrass, Large",[9]; [15],70
same,"Plant response rating, Crabgrass, Large",[9]; [16],100
same,"Plant response rating, Crabgrass, Large",[9]; [17],70
same,"Plant response rating, Crabgrass, Large",[9]; [18],100
same,"Plant response rating, Pigweed",[10]; [15],0
same,"Plant response rating, Pigweed",[10]; [16],0
same,"Plant response rating, Pigweed",[10]; [17],0
same,"Plant response rating, Ducksalad",[11]; [19],0
same,"Plant response rating, Ducksalad",[11]; [20],0
same,"Plant response rating, Ducksalad",[11]; [21],0
same,"Plant response rating, Ducksalad",[11]; [22],0
same,"Plant response rating, Barnyardgrass",[12]; [19],85
same,"Plant response rating, Barnyardgrass",[12]; [20],100
same,"Plant response rating, Barnyardgrass",[12]; [21],100
same,"Plant response rating, Barnyardgrass",[12]; [22],60
same,"Plant response rating, Rice",rice (Oryza sativa); [19],40
same,"Plant response rating, Rice",rice (Oryza sativa); [20],70
same,"Plant response rating, Rice",rice (Oryza sativa); [21],80
same,"Plant response rating, Rice",rice (Oryza sativa); [22],35
same,"Plant response rating, Sedge, Umbrella",[13]; [19],0
same,"Plant response rating, Sedge, Umbrella",[13]; [20],0
same,"Plant response rating, Sedge, Umbrella",[13]; [21],0
same,"Plant response rating, Sedge, Umbrella",[13]; [22],0
